The structures appear in SMILES notation.

For assay [1], the target named is T1, PvdF (Pseudomonas aeruginosa, UniProt Q9I184).
T1 construct: recombinant from E. coli BL21(DE3), His6 tag kept at N-terminus (His6PvdF, pET-DUET1; also all variants) or C-terminus (PvdFHis6, pET21a); IMAC and SEC; monomer
The assay is described as follows: differential scanning fluorimetry, SYPRO Orange. It is filed as binding. Particulars: 10 uM protein, 1.5 mM fTHF, 10 mM HEPES pH 8.0; site not determined; also co-substrate in the activity assay. For orientation: In DSF a fluorescence change marks the thermal transition of the protein.

For assay [2], the target named is T1, PvdF. The experiment in a line: direct injection mass spectrometry of fOHOrn product. It is filed as biochemical. Particulars: 25 uM PvdF, 1 mM OHOrn, 1.5 mM fTHF, 10 mM HEPES pH 8.0, 30 C, 3 h.

T1 sequence (Q9I184 entry or part of it): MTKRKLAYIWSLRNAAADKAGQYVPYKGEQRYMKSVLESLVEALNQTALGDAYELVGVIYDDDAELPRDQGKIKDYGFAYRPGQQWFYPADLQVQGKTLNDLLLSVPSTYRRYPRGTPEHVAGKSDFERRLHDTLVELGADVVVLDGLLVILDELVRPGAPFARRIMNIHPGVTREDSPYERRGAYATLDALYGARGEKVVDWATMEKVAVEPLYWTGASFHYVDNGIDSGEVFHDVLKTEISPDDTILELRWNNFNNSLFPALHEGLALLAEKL

As for `Nc1nc2c(c(=O)[nH]1)N[C@@H](CN(C=O)c1ccc(C(=O)N[C@@H](CCC(=O)O)C(=O)O)cc1)CN2` [N^10-formyltetrahydrofolate], the thermal shift entry on PvdF [1] is “addition of fTHF resulted in a significant change in fluorescence of wild-type PvdF”. As to `N[C@@H](CCCNO)C(=O)O` [L-OHOrn], the “direct injection mass spectrometry of fOHOrn product” value on PvdF [2] is “able to convert OHOrn to fOHOrn with fTHF as the co-substrate”.

For the origin of these results see PMC7926923, “Identification of Active Site Residues of the Siderophore Synthesis Enzyme PvdF and Evidence for Interaction of PvdF with a Substrate-Providing Enzyme” (International Journal of Molecular Sciences, 2021).
